The target in the test is Dual specificity protein phosphatase 3 (Homo sapiens) (UniProt P51452). Briefly: Biochemical DiFMUP fluorescent assay for VHR phosphatase inhibition, SAR follow up (AID 2074). To be noted: recombinant VHR phosphatase, DiFMUP fluorescence.

The values that follow come from PubChem BioAssay AID2074 (Sanford-Burnham Center for Chemical Genomics, 2009).

Dual specificity protein phosphatase 3 (Homo sapiens), sequence (P51452 whole entry, looked up): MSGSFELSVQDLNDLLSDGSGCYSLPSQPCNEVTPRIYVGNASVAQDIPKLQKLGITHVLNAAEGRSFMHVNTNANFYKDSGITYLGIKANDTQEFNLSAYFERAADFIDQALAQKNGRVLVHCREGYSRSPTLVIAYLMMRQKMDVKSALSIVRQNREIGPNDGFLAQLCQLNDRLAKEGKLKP

The IC50 is the midpoint of a concentration-inhibition curve. Take `O=C1/C(=C/c2cn(-c3ccccc3)nc2-c2ccc(S(=O)(=O)N3CCOCC3)cc2)SC(=S)N1CCS(=O)(=O)O`: the IC50 is 2400 nM.

With `Cc1ccc(-c2nn(-c3ccccc3)cc2/C=C2\SC(=S)N(CCS(=O)(=O)O)C2=O)cc1`, the IC50 is 3100 nM.

Regarding `O=C1/C(=C/c2cn(-c3ccccc3)nc2-c2ccc(OCc3ccc(Cl)cc3)cc2)SC(=S)N1CCS(=O)(=O)O`, the IC50 was 18 nM.

Take `O=C1/C(=C/c2cn(-c3ccccc3)nc2-c2ccc(OCc3ccccc3Cl)cc2)SC(=S)N1CCS(=O)(=O)O`: the IC50 was 71 nM.

As to `COc1ccc(-c2nn(-c3ccccc3)cc2/C=C2\SC(=S)N(CCS(=O)(=O)O)C2=O)cc1`, the IC50 is 1800 nM.

Take `O=C1/C(=C/c2cn(-c3ccccc3)nc2-c2ccc(Cl)cc2)SC(=S)N1CCS(=O)(=O)O`: the IC50 is 1800 nM.

As to `O=C1/C(=C/c2cn(-c3ccccc3)nc2-c2ccc(OCc3ccccc3)cc2)SC(=S)N1CCS(=O)(=O)O`, the IC50 was 78 nM.
